One compound from US7576107B2 (dated 2009) can be followed below.

What is called melting point is the temperature, or range, at which the solid turns liquid.

For `COCCNc1c(S(=O)(=O)C(F)(F)F)c(C#N)nn1-c1c(Cl)cc(C(F)(F)F)cc1Cl`, the melting point worked out at 164 °C.
